Experimental data taken from US12076304B2, “Compositions comprising 15-HEPE and methods of treating or preventing hematologic disorders, and/or related diseases” (priority 2020, dated 2024).
“Also recorded” adds a separate entry of the source.

Key:
NAFLD patients [1] = test: Phase IIa study in NAFLD patients: panel of protein biomarkers (proteomics); format: in vivo, human
Text: (§1) The study was planned to include 96 evaluable patients with 32 patients randomized per treatment group.

NAFLD patients [2] = test: Phase IIa study in NAFLD patients: OWL liver care test; format: in vivo, human
Text: as §1
OWL Liver Care is a test that was developed based on the plasma lipidomics in biopsy-confirmed NASH patients and provides high predictive values. OWL Liver Care has an area under the curve (AUC) of 0.88 for distinguishing NAFLD and normal liver patients and an AUC of 0.79 for distinguishing NAFLD without steatohepatitis and NASH patients.

Collagen Type 1 mRNA = test: BDL mice liver quantitative RT-PCR, Collagen Type 1; format: in vivo; conditions: for Collagen Type 1 relative mRNA expression level: BDL mice liver, normalized to 36B4, Sham 1.00, mean ± SD
Protocol: (§2) Quantitative RT-PCR: Total ribonucleic acid (RNA) was extracted from liver samples using RNAiso (Takara Bio, Japan) according to the manufacturer's instructions. One μg of RNA was reverse-transcribed using a reaction mixture containing 4.4 mM magnesium chloride (MgCl2) (F. Hoffmann-La Roche, Switzerland), 40 U RNase inhibitor (Toyobo, Japan), 0.5 mM dNTP (Promega, USA), 6.28 μM random hexamer (Promega), 5× first strand buffer (Promega), 10 mM dithiothreitol (Invitrogen, USA) and 200 U MMLV-RT (Invitrogen) in a final volume of 20 μL. The reaction was carried out for 1 hour at 37° C., followed by 5 minutes at 99° C. Real-time PCR was performed using real-time PCR DICE and TB Green™ Premix Ex Taq™ II (Takara Bio). To calculate the relative mRNA expression level, the expression of each gene (α-SMA, TIMP-1, TGF-β and Collagen Type 1) was normalized to that of reference gene 36B4 (gene symbol: Rplp0). Information regarding the PCR-primer sets and the plate layout are described in Tables 8 and 9.

TIMP-1 mRNA = test: BDL mice liver quantitative RT-PCR, TIMP-1; format: in vivo; conditions: for TIMP-1 relative mRNA expression level: BDL mice liver, normalized to 36B4, Sham 1.00, mean ± SD
Protocol: as §2

[3] = 1 g per day, baseline diagnosis NASH (19 at baseline)
[4] = 1 g per day, baseline diagnosis No NAFLD (4 at baseline)
[5] = 1 g per day, baseline diagnosis Steatosis (5 at baseline)
[6] = 2 g per day, baseline diagnosis NASH (12 at baseline)
[7] = 2 g per day, baseline diagnosis No NAFLD (3 at baseline)
[8] = 2 g per day, baseline diagnosis Steatosis (14 at baseline)
[9] = BDL mice, 500 mg/kg PO QD Day 0-13, 500 mg/kg
[10] = BDL mice, DS102 treatment groups as a whole

## 15-HEPE [DS102]
NAFLD patients [1]; 1 g
  TR (protein level): significant reductions
NAFLD patients [1]; 1 g group, Placebo group 0 proteins
  proteins that passed the 1st threshold based on the Benjamini-Hochberg testing: 1
NAFLD patients [1]; 2 g
  NASH drug development targets (CCR215 signaling, Galectin3, AOC3): decreased
NAFLD patients [1]; 2 g, Table 21: PAI-1, TIMP-1, DPP4, TLT2, CCL16, MCP-1, SAA4, PI3, TR, LILRB1, TNRSF11A, Table 22: TL12, AOC3, PRSS2
  inflammatory and pro-fibrotic proteins (protein expression): decreased
NAFLD patients [1]; 2 g, panel of greater than 350 protein biomarkers
  number of markers (inflammation, fibrosis, lipid metabolism, apoptosis, chemotaxis) with significantly downregulated expression: over 150
NAFLD patients [1]; NAFLD patients, vs placebo
  expression of multiple circulating chemokines: decreased
  expression of multiple proteins associated with increased cardiovascular risk: decreased
  expression of multiple tumor necrosis factor receptor superfamily members: decreased
  expression of multiple vascular adhesion molecules: decreased
NAFLD patients [2]; [3]
  OWL test Change in Diagnosis (Week 16 vs. baseline): Improvement, patients: 5
  OWL test Change in Diagnosis (Week 16 vs. baseline): Stable, patients: 14
NAFLD patients [2]; [4]
  OWL test Change in Diagnosis (Week 16 vs. baseline): Stable, patients: 3
  OWL test Change in Diagnosis (Week 16 vs. baseline): Worsening, patients: 1
NAFLD patients [2]; [5]
  OWL test Change in Diagnosis (Week 16 vs. baseline): Stable, patients: 2
  OWL test Change in Diagnosis (Week 16 vs. baseline): Worsening, patients: 3
NAFLD patients [2]; [6]
  OWL test Change in Diagnosis (Week 16 vs. baseline): Improvement, patients: 5
  OWL test Change in Diagnosis (Week 16 vs. baseline): Stable, patients: 7
NAFLD patients [2]; [7]
  OWL test Change in Diagnosis (Week 16 vs. baseline): Stable, patients: 2*, **
  OWL test Change in Diagnosis (Week 16 vs. baseline): Worsening, patients: 1
NAFLD patients [2]; [8]
  OWL test Change in Diagnosis (Week 16 vs. baseline): Improvement, patients: 1
  OWL test Change in Diagnosis (Week 16 vs. baseline): Stable, patients: 9
  OWL test Change in Diagnosis (Week 16 vs. baseline): Worsening, patients: 4
NAFLD patients [2]; NAFLD patients, dose dependent, vs placebo at Week 16
  OWL liver care diagnosed NASH: significantly improved and normalized
Collagen Type 1 mRNA; 50 mg/kg PO QD Day 0-13
  Collagen Type 1 relative mRNA expression level: 4.94 ± 2.76
Collagen Type 1 mRNA; 250 mg/kg PO QD Day 0-13
  Collagen Type 1 relative mRNA expression level: 4.21 ± 1.90
Collagen Type 1 mRNA; 500 mg/kg PO QD Day 0-13
  Collagen Type 1 relative mRNA expression level: 2.51 ± 1.39
Collagen Type 1 mRNA; [9]
  Collagen Type 1 mRNA expression level compared with the Vehicle group: tended to decrease; also recorded: trend approaching significance
Collagen Type 1 mRNA; [10]
  Collagen Type 1 mRNA expression level, Vehicle group vs the DS102 treatment groups: no significant differences
TIMP-1 mRNA; 50 mg/kg PO QD Day 0-13
  TIMP-1 relative mRNA expression level: 43.82 ± 26.19
TIMP-1 mRNA; 250 mg/kg PO QD Day 0-13
  TIMP-1 relative mRNA expression level: 30.65 ± 16.80
TIMP-1 mRNA; 500 mg/kg PO QD Day 0-13
  TIMP-1 relative mRNA expression level: 16.09 ± 10.16
TIMP-1 mRNA; [9]
  TIMP-1 mRNA expression level compared with the Vehicle group: tended to decrease; also recorded: trend approaching significance
TIMP-1 mRNA; [10]
  TIMP-1 mRNA expression level, Vehicle group vs the DS102 treatment groups: no significant differences
